According to patent US9717737B2, “Vacuolin-1 as an inhibitor of autophagy and endosomal trafficking and the use thereof for inhibiting tumor progression” (The University of Hong Kong, priority 2014, dated 2017):

Legend:
Rab5 = target: T1, Rab5 (Homo sapiens, UniProt P20339); assay: GST-tagged Rabaptin5 pull-down assay for active Rab5; type: cell-based; settings: HeLa cells, 1 μM
T1 construct: results of a GST-tagged Rabaptin5 pull-down assay in HeLa cells showing active Rab5 in cells treated with vacuolin-1 (1 μM); endogenous in cells; host or cells: HeLa cells
T1 sequence (P20339 1-215): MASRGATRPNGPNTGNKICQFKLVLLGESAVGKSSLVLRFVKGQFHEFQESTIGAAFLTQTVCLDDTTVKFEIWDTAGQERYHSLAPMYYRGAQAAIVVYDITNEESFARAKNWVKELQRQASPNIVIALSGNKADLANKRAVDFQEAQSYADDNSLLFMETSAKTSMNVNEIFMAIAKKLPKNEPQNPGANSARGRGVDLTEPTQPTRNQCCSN
Method: Glutathione S-Transferase (GST) Pull-Down Assay—Cells were collected and lysed in an ice-cold EBC lysis buffer described previously. Lysates were clarified by centrifugation at 13,000 g for 10 min at 4° C., and equal amount of protein (500 μg) from each supernatant was incubated with 30 μl of GST-RSBD bound to the 30 μl glutathione—Sepharose beads for 1 h at 4° C. on a rotating mixer. The beads was subsequently washed and resuspended in the standard SDS-sample buffer, boiled and subjected to SDS-PAGE (15% gel), followed by immunoblot analysis with the anti-Rab5 mAb.

[1] = test system: human lung cancer stem cells (hLCSCs); assay: Migration of hLCSCs; type: cell-based; settings: >10 μM
From the text: (§1) Cancer stem cells (CSCs), a subpopulation of cells within tumors, actually drive tumor growth and recurrence. CSCs are resistant to many current cancer treatments, including chemo- and radiation therapy, thus they can survive these therapy to regenerate new tumors. […] Therefore, it is of great interest to assess the anti-tumor effects of vacuolin-1 on CSCs.

HeLa cells [2] = assay: Western blot analyses of LC3 and p62; type: cell-based
Method: Western blot and Immunofluorescence staining analyses—Both assays were performed as described previously (Lu et al., 2013).

HeLa cells [3] = assay: DQ-BSA-green degradation assay (flow cytometry); type: cell-based; settings: 1 μM
Method: Since the increase of lysosomal pH normally compromises the lysosomal activity, it was assessed whether vacuolin-1 affects the general lysosomal functions to inhibit autophagy maturation. […] Next, an epidermal growth factor receptor (EGFR) degradation assay was performed to examine whether vacuolin-1 affects the general endosomal-lysosomal pathway. In this assay, HeLa cells were treated with EGF in the presence or absence of vacuolin-1. After EGF binds to its receptors (EGFR), the receptor complex undergoes endocytosis and is targeted tolysosomes for degradation. […] Similarly, a DQ-BSA-green degradation assay was applied to measure the general endosomal-lysosomal degradation. DQ-BSA-green is a BSA labeled with a self-quenching fluorescent dye. After DQ-BSA-green is delivered to lysosomes via endocytosis, it is hydrolyzed into single dye-labeled peptides by lysosomal proteases, thereby relieving self-quenching and the fluorescence can subsequently be monitored by flow cytometry.

HeLa cells [4] = assay: Cathepsin L processing (western blot); type: cell-based; settings: 1 μM
CNE-1 and HONE-1 cells = type: cell-based, human
Method: Although CQ has already been applied to treat a wide spectrum of human cancers, CQ induces ocular or renal toxicity and easily triggers drug resistance (Kimura et al., 2013). […] We first investigated the anti-tumor effects of vacuolin-1 in two nasopharyngeal carcinoma cell lines, CNE-1 and HONE-1. […] Alternatively, colony formation assay was performed to assess whether vacuolin-1 affects the ability of a single tumor cell to grow into a colony. […] We subsequently performed wound healing assay to assess whether vacuolin-1 affects the migration of tumor cells. […] Obviously, vacuolin-1 is an efficient anti-tumor agent in vitro.

[5] = test system: human lung cancer stem cells (hLCSCs); assay: Invasion of hLCSCs; type: cell-based; settings: >10 μM
From the text: as §1

[6] = test system: RFP-GFP-LC3 expressing HeLa cells; assay: RFP-GFP-LC3 (tfLC3) fluorescence image-based autophagy assay; type: cell-based
From the text: Prompted by the fact that many available autophagy chemical modulators lack either potency or specificity (Kimura et al., 2013), a fluorescence image-based assay was set up to screen small molecules affecting autophagy. HeLa cells, an autophagy competent cell line, were infected with lentiviruses carrying expression cassettes that encode RFP-GFP-LC3 (tfLC3) (Kimura et al., 2007). Thus, the LC3-II positive autophagosomes are labeled with both GFP and RFP signals shown as yellow puncta, and after fusion with lysosomes, autolysosomes are shown as red only puncta because GFP loses its fluorescence in acidic pH.
Next, a panel of small chemicals that are commercially available and have been previously shown to affect vesicle trafficking or organelle morphology were selected and screened for their effects on autophagy regulation in tfLC3 expressing HeLa cells (data not shown).

[7] = test system: human lung cancer stem cells (hLCSCs); assay: Colony formation of hLCSCs; type: cell-based; settings: >10 μM
From the text: as §1

[8] = target: T2, V-ATPase (purified V1V0 holoenzyme) (Manduca sexta, UniProt P31400); assay: In vitro V-ATPase assay; type: biochemical, M. sexta
T2 construct: Assays contained 3 μg of purified V1V0 holoenzyme; from tissue; host or cells: Fifth instar larvae of M. sexta; The midgut goblet cell apical membrane is named only in the title of the cited Wieczorek et al. 1990, not in the method text
T2 sequence (P31400 whole entry): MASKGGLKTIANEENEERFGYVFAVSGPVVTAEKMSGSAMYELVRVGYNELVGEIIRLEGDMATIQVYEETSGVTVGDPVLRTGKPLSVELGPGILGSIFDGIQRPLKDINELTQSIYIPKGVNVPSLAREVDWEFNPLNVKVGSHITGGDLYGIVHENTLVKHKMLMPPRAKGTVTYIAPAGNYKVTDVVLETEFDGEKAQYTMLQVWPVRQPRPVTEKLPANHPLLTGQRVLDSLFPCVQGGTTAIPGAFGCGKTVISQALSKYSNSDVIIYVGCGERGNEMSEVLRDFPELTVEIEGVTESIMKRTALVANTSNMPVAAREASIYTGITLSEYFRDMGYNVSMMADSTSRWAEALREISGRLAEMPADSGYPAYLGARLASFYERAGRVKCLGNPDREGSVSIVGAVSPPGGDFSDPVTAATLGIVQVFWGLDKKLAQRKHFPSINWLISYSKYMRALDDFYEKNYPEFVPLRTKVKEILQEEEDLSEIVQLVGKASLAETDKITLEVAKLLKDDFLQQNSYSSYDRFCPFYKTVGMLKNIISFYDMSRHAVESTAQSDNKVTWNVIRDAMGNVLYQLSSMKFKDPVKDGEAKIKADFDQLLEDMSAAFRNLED
Method: V-ATPase assay—Fifth instar larvae of M. sexta (Lepidoptera, Sphingidae), weighing 6-8 g, were reared under long day conditions (16 h of light) at 27° C. using the gypsy moth diet (MP Biomedicals, Germany). The purification of the V1VO holoenzyme was performed as previously described (Huss et al., 2002). Activity assays were performed in triplicate in a final volume of 160 μL and at a pH of 8.1. Assays contained 3 μg of purified V1V0 holoenzyme, 50 mM Tris-Mops, 3 mM 2-mercaptoethanol, 1 mM MgCl2, 20 mM KCl, 0.003% C12E10, 20 mM NaCl, and 3 mM Tris-HCl. After 10 min of preincubation at 30° C., with or without inhibitors, 1 mM Tris-ATP was added and after an incubation for 2 min at 30° C. the reaction was stopped by freezing the samples in liquid nitrogen. Inorganic phosphate was determined as previously described (Wieczorek et al., 1990).

HeLa cells [9] = assay: Transmission electron microscopy of treated cells; type: cell-based
Method: Cell preparation for transmission electron microscopy (TEM)—Cell preparation for TEM was performed as described previously (Mi et al., 2007).

human cancer cell lines = assay: Combination with chemotherapy drugs in human cancer cell lines (FIG. 13); type: cell-based

## Ic1cccc(/C=N/Nc2nc(N3CCOCC3)nc(N(c3ccccc3)c3ccccc3)n2)c1 [vacuolin-1]
Rab5
  Rab5 activation (Rab5-GTP pull-down): markedly activated Rab5
[1]
  migration of hLCSCs: almost completely inhibited
HeLa cells [2]; 3 hours after removal from the medium, HeLa cells, 1 μM
  fusion block between autophagosomes and lysosomes after removal of compound (reversibility): completely relieved
HeLa cells [2]; HeLa and PC3 cells, 6 hours, LC3 and p62 western blot
  potency in suppressing autophagy relative to CQ: at least ten times more potent than CQ
HeLa cells [2]; HeLa cells, vacuolin-1 1 μM
  lipidated LC3-II level: markedly increased
  p62 level: accumulated
HeLa cells [3]
  degradation of DQ-BSA-green by lysosomes: markedly inhibited the degradation of BSA
HeLa cells [4]
  levels of immature form of cathepsin L: markedly increase
  processing of cathepsin L into its mature form: not affected
CNE-1 and HONE-1 cells
  cell toxicity, treatment alone: little cell toxicity
  synergistic effects on inhibiting tumor cell proliferation in combination with taxol, 5-FU, temsirolimus: almost no synergistic effects
[5]
  invasion of hLCSCs: almost completely inhibited
[6]
  LC3 puncta (yellow = autophagosomes, red only = autolysosomes): potently induced LC3 yellow puncta, not red puncta
[7]
  colony formation of hLCSCs: almost completely inhibited
[8]
  V-ATPase activity in vitro: little effects
HeLa cells [9]; HeLa cells in normal culture conditions, 1 μM
  autophagic vacuoles under the electron microscope: large numbers of autophagic vacuoles were observed
HeLa cells [9]; HeLa cells, versus control
  lysosome morphology in electron micrograph: enlarged lysosomes
Human cancer cell lines; FIG. 13B
  colony formation efficiency of cancer cells, combination with chemotherapy drugs: greatly decreases
Human cancer cell lines; human cancer cell lines, FIG. 13A
  anti-tumor effects of chemotherapy drugs in combination: potently enhances
